Source: PMC9028219 (Frontiers in Nutrition, 2022)

What was measured:
[1] = system: A549; experiment: NRU anti-proliferative assay; format: cell-based; conditions: Homo sapiens
Experimental: The cell lines used for the present study were K562 (erythroid leukemia), COLO-205 (colon carcinoma), FaDu (hypopharyngeal carcinoma), MCF-7 (breast ER+ve adenocarcinoma), WRL-68 (hepatocellular carcinoma), A549 (lung carcinoma), and HEK-293 (embryonic kidney). These cell lines were purchased from the National Center for Cell Sciences (NCCS), Pune, India, except FaDu, which Dr. Sarkar endowed from CSIR-Central Drug Research Institute, Lucknow, Uttar Pradesh, India.
The NRU assay was carried out by Babich and Borenfreund ([29]) method. Similar to the SRB assay, 5 μl NRU dye was added to the treated plate. Then, cells were washed with fixative solution after 3 h of incubation; further, the bound dye was solubilized in a dissolving solution. The absorbance was measured at 540 nm ([29]).

[2] = target: Lipoxygenase-5 (LOX-5) (Homo sapiens, UniProt P09917); experiment: LOX-5 activity assay in cell lysate
Experimental: Cyclooxygenase-2 (COX-2) activity was measured as reported by Kulmaczand Lands ([33]). The reaction cocktail consists of Tris-HCl buffer (100 mM and pH 8.0), EDTA (3 μM), hematin (15 μM), and cell lysate. After incubation, arachidonic acid (AA) and N,N,N′,N′-tetra methyl-p-phenylenediamine (TMPD) was added to 96 well plates to initiate the reaction. The reaction mixture was immediately auto mixed using the Multiscan Go of Thermo Scientific spectrophotometer, and absorbance was measured at 590 nm ([33]). The enzyme inhibition was calculated concerning control. […] Approximately 40 μM of AA was mixed to initiate the reaction, and the plate was kept for 4 min at room temperature. The reaction was terminated by adding an equal ratio of reagent 1 (4.5 mM FeSo4 in HCl) and reagent 2 (3% NH4SCN). The absorbance was taken at 480 nm using a spectrophotometer ([34]). The enzyme inhibition was compared concerning control.

[3] = target: T1, Dihydrofolate reductase (DHFR) (Homo sapiens, UniProt P00374); experiment: DHFR activity assay in lysate of treated cells; conditions: cell-based test system, higher tested concentration 100 μM
T1 construct: endogenous in cells; host or cells: FaDu, K562, A549
Experimental: (§1) Protein was estimated by nanodrop before being used for the enzyme assays.
In one set, ~10 μg of cell lysate was incubated with a reaction cocktail (2.3 mM DHFA, 0.11 mM β-NADPH in 50 mM potassium phosphate buffer, and pH 6.5), while another set was incubated in the reaction cocktail containing 0.1% bovine serum albumin (BSA) solution. The reaction mixture was mixed, and the kinetic study was performed at 340 nm for 5 min. The results were calculated using percentage inhibition concerning control ([31]). The ODC activity was determined by the modified method reported by Luqman et al. ([32]). Approximately 10 μg of cell lysate was added to the reaction cocktail (2.5 mM β-mercaptoethanol, 1.5 mM EDTA, 75 nM pyridoxal-phosphate, 3 mM L-ornithine hydrochloride in 150 mM potassium phosphate buffer, and pH 7.1). Approximately, 400 μl of 1 M perchloric acid was used to terminate the reaction, and NaOH (4N) was added to the supernatant. Further, 1-pentanol was added after centrifugation. Then, the upper organic phase was transferred to a microcentrifuge tube with 200 μl sodium borate, 200 μl TNBS, and 400 μl DMSO. Further, it was centrifuged, and 60 μl of supernatant was taken in plate, and absorbance was measured at 412 nm. The graph was plotted in the terms of percentage inhibition.

[4] = system: HDAC-6; experiment: ELISA kit assay in FaDu cells; format: cell-based, human
Experimental: (§2) The PI3K expression was determined using a kit procured from Bioassay Technology (Catalog No. E0896Hu). The protocol measured the AKT (Catalog No. 201-12-0893) and HDAC-6 (Catalog No. 201-12-2132) as indicated in the human-specific ELISA kit from Sun Red Company, China. mTOR (Catalog No. E-EL-H1655) was quantified by a kit purchased from ELab Sciences, USA. The VEGF (Catalog No. ab100663) and HIF-1α (Catalog No. ab171577) were estimated using a kit procured from Abcam, UK.

[5] = system: AKT; experiment: ELISA kit assay in FaDu cells; format: cell-based, human
Experimental: as §2

[6] = system: HIF-1α; experiment: ELISA kit assay in FaDu cells; format: cell-based, human; conditions: both tested concentrations
Experimental: as §2

[7] = system: mTOR; experiment: ELISA kit assay in FaDu cells; format: cell-based, human
Experimental: as §2

[8] = system: PI3K; experiment: ELISA kit assay in FaDu cells; format: cell-based, human
Experimental: as §2

[9] = system: VEGF; experiment: ELISA kit assay in FaDu cells; format: cell-based, human; conditions: both tested concentrations
Experimental: as §2

[10] = system: FaDu cells; experiment: Annexin V-FITC/PI apoptosis assay; format: cell-based, human
Experimental: The cell cycle analysis was carried out by the protocol reported by Fatima et al. ([40]). The cell lines were fixed with 70% ethanol. Before analysis, fixed cells were washed at least two times with PBS and PI solution containing RNase A to stain the cells. The samples were run on a flow cytometer within 1 h. Treated FaDu cells were incubated with 10 μM of DCFH-DA dye for 30 min then fluorescence was measured at 485/530 nm of […]. For FACS analysis, treated cells were incubated with 10 μM of DCFH-DA dye for 30 min, and the samples were analyzed within 1 h ([41]). The protocol for the analysis of MMP was similar to that of DCFH-DA except for Rhodamine 123 dye ([41]). The experiment was also carried out as per the method reported in Annexin-V-FITC apoptosis detection kit I (BD Pharmingen^TM, Catalog No. 556547). For the assay, 1 × 10^6 cells were grown in 6 well plates and treatment was given 24 h. The next day, cells were washed with cold PBS, and the pellet was resuspended in 100 μl (1X binding) buffer and left for 15 min followed by incubation with a dual fluorescent dye (5 μl FITC and 5 μl PI) for 10 min. The cell suspension was maintained upto 500 μl from the 1X binding buffer. The stained cells were analyzed by flow cytometer within 1 h ([42]).

[11] = target: T2, Ornithine decarboxylase (ODC) (Homo sapiens, UniProt P11926); experiment: ODC activity assay in lysate of treated cells; format: cell-based; conditions: A549, 100 μM
T2 construct: endogenous in cells; host or cells: A549

[12] = target: T3, Cathepsin D (CATD) (Homo sapiens, UniProt P07339); experiment: CATD activity assay in cell lysate; format: cell-based
T3 construct: endogenous in cells; host or cells: FaDu, K562, A549
Experimental: as §1
(§3) The HYAL assay was performed by the standard reported protocol ([35]). Approximately 10 μg of cell lysate added in enzyme diluent buffer (77 mM sodium chloride, 20 mM sodium phosphate, 0.01% albumin, and pH 7.0 at 37°C). The reaction mixture was incubated for 45 min after adding HA (substrate). The mixture was distributed in three parts, each well of the plate containing 25 μl followed by the addition of 125 μl of diluent buffer (79 mM acetic acid, 24 mM sodium acetate, 0.1% albumin bovine, and pH 3.75). The absorbance was measured at 600 nm after 10 min incubation. The graph was shown in the terms of percentage inhibition. Hemoglobin was used as a substrate to determine CATD activity ([36]). Cell lysate (10 μg) was incubated with a reaction cocktail (2.5% of hemoglobin, deionised water, 400 mM citrate buffer, and pH 2.8) for 30 min at 37°C; the reaction was terminated by adding 5% TCA. Then, 200 μl of supernatant was taken in plate after centrifuge and absorbance were measured at 280 nm.

[13] = system: Hyaluronidase (HYAL); experiment: HYAL activity assay in cell lysate; format: cell-based, human
Experimental: as §1, §3

[14] = higher concentration (4 x IC50), 24 h

T3 sequence (P07339 65-412): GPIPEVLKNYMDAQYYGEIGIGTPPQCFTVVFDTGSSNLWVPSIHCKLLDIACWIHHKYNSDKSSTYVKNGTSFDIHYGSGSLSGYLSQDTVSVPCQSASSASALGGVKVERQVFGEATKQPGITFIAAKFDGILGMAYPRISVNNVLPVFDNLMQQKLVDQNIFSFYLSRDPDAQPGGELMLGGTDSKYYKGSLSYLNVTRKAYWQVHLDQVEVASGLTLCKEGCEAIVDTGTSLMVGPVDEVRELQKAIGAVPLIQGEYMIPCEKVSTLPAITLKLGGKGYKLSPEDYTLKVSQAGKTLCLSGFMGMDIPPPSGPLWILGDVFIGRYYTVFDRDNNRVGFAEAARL
Sequence of Lipoxygenase-5 (LOX-5) (P09917 whole entry): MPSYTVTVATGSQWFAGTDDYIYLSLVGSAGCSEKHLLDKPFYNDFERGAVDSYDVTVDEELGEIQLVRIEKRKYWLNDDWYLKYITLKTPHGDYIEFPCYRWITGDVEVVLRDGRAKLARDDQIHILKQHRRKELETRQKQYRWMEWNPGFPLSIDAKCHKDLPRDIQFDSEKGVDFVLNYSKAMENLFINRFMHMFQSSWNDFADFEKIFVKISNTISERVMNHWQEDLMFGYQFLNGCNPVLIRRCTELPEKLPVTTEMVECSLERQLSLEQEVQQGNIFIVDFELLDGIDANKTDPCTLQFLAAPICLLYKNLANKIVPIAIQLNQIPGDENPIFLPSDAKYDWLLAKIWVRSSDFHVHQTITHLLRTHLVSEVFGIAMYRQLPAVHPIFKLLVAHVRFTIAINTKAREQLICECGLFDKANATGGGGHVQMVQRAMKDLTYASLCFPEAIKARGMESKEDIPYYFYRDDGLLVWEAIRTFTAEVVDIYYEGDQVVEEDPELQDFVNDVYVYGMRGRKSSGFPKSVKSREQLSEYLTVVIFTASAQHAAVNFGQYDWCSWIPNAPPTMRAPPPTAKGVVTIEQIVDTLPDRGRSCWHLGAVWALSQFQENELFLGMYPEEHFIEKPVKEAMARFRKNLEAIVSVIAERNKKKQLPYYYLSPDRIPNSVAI
T2 sequence (P11926 whole entry): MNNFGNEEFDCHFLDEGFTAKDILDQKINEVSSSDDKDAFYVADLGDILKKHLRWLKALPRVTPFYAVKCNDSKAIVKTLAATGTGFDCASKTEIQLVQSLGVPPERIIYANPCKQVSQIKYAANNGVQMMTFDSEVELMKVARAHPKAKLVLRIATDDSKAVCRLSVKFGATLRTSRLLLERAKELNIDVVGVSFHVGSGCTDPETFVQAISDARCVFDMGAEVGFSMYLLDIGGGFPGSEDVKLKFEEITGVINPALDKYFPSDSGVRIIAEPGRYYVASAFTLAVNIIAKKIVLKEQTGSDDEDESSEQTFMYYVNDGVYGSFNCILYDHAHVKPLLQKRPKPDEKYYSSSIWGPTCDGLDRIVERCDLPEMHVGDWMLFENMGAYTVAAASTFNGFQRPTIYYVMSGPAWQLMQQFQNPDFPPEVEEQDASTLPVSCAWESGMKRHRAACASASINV
T1 sequence (P00374 whole entry): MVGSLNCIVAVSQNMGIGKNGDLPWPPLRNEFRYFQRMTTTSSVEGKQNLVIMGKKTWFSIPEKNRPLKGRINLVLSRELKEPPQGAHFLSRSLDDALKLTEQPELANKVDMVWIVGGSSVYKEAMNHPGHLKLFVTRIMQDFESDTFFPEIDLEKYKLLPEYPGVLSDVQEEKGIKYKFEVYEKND

Cc1ccc(C(C)C)cc1O [carvacrol, 5-isopropyl-2-methyl phenol]
IC50 [1]: 80.9 ± 8.28 µM | suppression of LOX-5 activity ([2]; A549): < 50% | suppression of LOX-5 activity ([2]; K562): < 50% | suppression of DHFR enzyme action [3]: up to 7% | effect on HDAC-6 activity [4]: inhibits HDAC-6 activity in a dose-dependent manner | effect on AKT activity [5]: suppresses the activity of the PI3K/AKT at the higher tested concentration | effect on HIF-1α activity [6]: the effect was non-significant | effect on mTOR activity [7]: reduces the activity | effect on PI3K activity [8]: suppresses the activity of the PI3K/AKT at the higher tested concentration | effect on VEGF activity [9]: the effect was non-significant | significance of effect on apoptosis and necrosis ([10]; Annexin V-FITC and PI): non-significant | early apoptosis (A+/P-) [10, 14]: 0.1% | late apoptosis (A+/P+) [10, 14]: 1.4% | necrosis (A-/P+) [10, 14]: 3.4% | reduction of ODC activity [11]: 35.68% | suppression of CATD activity ([12]; A549): 2 ± 0.52% | suppression of CATD activity ([12]; FaDu): 18.48 ± 0.33% | suppression of CATD activity ([12]; K562): 5 ± 0.94% | reduction of HYAL enzyme action ([13]; A549, 100 μM): 39.15% | IC50 ([13]; FaDu): 88.1 ± 10.4 µM | IC50 ([13]; K562): 62 ± 8.4 µM
